From patent publication US4001428A, “Cyclopropane derivatives and use thereof as cell membrane mobility agents” (Polymer Sciences Corporation, priority 1974, dated 1977)

Columns and labels:
[1] = system: rabbit lymphocytes; test: Cap formation on lymphocytes treated with fluorescent antibody (membrane mobility); assay type: cell-based
Protocol: Cap formation was followed on rabbit lymphocytes preincubated for various periods of time with one of the compounds, then treated with fluorescent antibody. At least 20 minutes preincubation with the aqueous dispersion of agent A2 C were required to produce a change in the observed rate from that of the control and between 1 and 2 h incubation was required for maximum response. A 1-h period was utilized in most experiments.
FIG. 2 illustrates the rate of cap formation in lymphocytes treated with A2 C. In each of these experiments rabbit blood was anticoagulated with heparin (200 I.U./cm^3) and diluted with NaCl-phosphate buffer, pH 7.3 (137 mM NaCl-1.8 mM KH2 PO4 -8.2 mM Na2 HPO4) to 40% of original volume. Diluted blood was layered over sodium metrizoate (Nyegaard, Oslo, Norway)-Ficoll (Pharmacia, Uppsala, Sweden) mixture (containing 6.3% Ficoll and 10% sodium metrizoate), and centrifuged for 30 min. at 400 g at 25° C. Cells collected from the interphase contained over 80% lymphocytes. Cells were centrifuged, washed 3 times in buffer containing albumin and resuspended in the same or A2 C buffer. (A2 C was suspended in buffer (with Vortex) and albumin added). Final concentrations: lymphocytes 10^7 cells/cm^3.A2 C 0.02-0.2 μl/cm^3, 0.2% albumin, 5 mM glucose. Usual sample volume: 0.2 cm^3. The cell suspension was incubated at 22° or 24° C for 60 min. […] Expt I: 0.1 1 A 2 C per cm^3; (log concn -3.7); temp. 22 C. Expt II: 0.02 and 0.2 A2 C per cm^3; temp. 24° C. Expt III: 0.2 A2 C per cm^3; temp. 24° C.

[2] = system: lymphocytes; test: Viability/cytotoxicity of lymphocytes, dye-exclusion test with trypan blue; assay type: cell-based; conditions: 60 minutes incubation, FIG. 1
Protocol: The viability of the cells thus incubated was evaluated by the dye-exclusion test, using trypan blue.

[3] = system: hen red blood cells; test: Fusion of hen red blood cells; assay type: cell-based; conditions: 0.125 to 0.5 μl/cc of cell suspension, 37° C
Protocol: (§1) Blood from the brachial vein of adult hens was mixed with heparin (as anticoagulant), centrifuged and the buffy coat removed. The erythrocytes were washed twice with 150 mM NaCl and once with buffer containing 76 mM sodium acetate, 70 mM NaCl, 1 mM CaCl2 and 100 mg/cc Dextran (MW 70,000) Pharmacia, Uppsala, Sweden (pH 5.7). The buffer is similar to but simpler than that used in a similar procedure by Lucy et al. The cells were resuspended in the same buffer and mixed with an equal volume of a suspension of the mobility agent A2 C dispersed in 150 mM NaCl by sonication. […] The final concentrations of A2 C used ranged between 0.06μl to 0.5 μl/cc containing 2-3 × 10^8 cells, 0.5 mM CaCl2, 38 mM sodium acetate, 110 mM NaCl and dextran (50 mg/cc). Cell suspensions were incubated at the desired temperature, mixed gently every 5 - 15 minutes and aliquots removed at intervals for viewing and photography at room temperature.

[4] = system: neurotransmitter release; test: Neurotransmitter release from cells; assay type: cell-based
Text: Many intracellular agents are released from cells at rates which are below that desirable for optimum bilogical activity. […] For example, the use of the membrane mobility agents of the invention on brain tissue would lead to more efficient response to pharmacologically-active compounds and stimuli (such as electrical stimuli) on such brain tissue.

[5] = system: mastocytoma; test: Agglutination of mastocytoma cells by wheat germ agglutinin and cap formation; assay type: cell-based
Text: Some malignant cells, like mastocytoma, agglutinate in the presence of wheat germ agglutinin.

[6] = Retained activity of sonicated suspension; assay type: physicochemical; conditions: dispersed in 150 mM NaCl by sonication, ca. 2 min
Protocol: as §1

[7] = system: glutathione; conditions: within cells; cited from earlier work

## CCCCCCCCC1CC1CCCCCCCC(=O)OCCOCCOC (stereo not shown) [A2 C, 2-(2-methoxy)-ethoxyethyl 8-(2-n-octylcyclopropyl octanoate]
[1]; 0.02-0.2 μl/cm^3, 60 min incubation at 22° or 24° C, FIG. 2
  rate of cap formation in treated cells, increase over controls: ≤ 50%
[1]; FIG. 2
  effect of inherent "high" or "low" capacity for cap formation on the effects of the agent: does not alter the effects produced by the mobility agent
  initial state of treated cells, extrapolation to zero cap formation time: might be initially more "prepared" to form caps than the control cells
[1]; aqueous dispersion of agent, rabbit lymphocytes
  preincubation time required to produce a change in the observed rate of cap formation from that of control: At least 20 minutes
[2]
  cytotoxicity on lymphocytes relative to concentration affecting mobility: toxic at concentrations considerably above that at which maximum effect on mobility was observed
[3]
  extent of erythrocytes eventually involved in fusion: most of the erythrocytes
  fusion of erythrocytes, degree of fusion: increasing degrees of fusion, starting with binucleated, trinucleated and tetranucleated cells and proceeding to multi-nucleated cells
  rounding and swelling of the cells: rounding and swelling of the cells
[4]
  neurotransmitter release: augmented by a small factor
[5]
  cap formation on mastocytoma cells: cause caps to form
[5]; wheat germ agglutinin
  extent of agglutination: diminish the extent of agglutination
[6]
  activity of sonicated suspension over time: remains active for several hours

## CCCCCCCCC1CC1CCCCCCCCOCCOCCOC (stereo not shown) [A2 CE, 2-(2-methoxy)-ethoxyethyl 8-(2-n-octylcyclopropyl)-n-octyl ether]
[1]; standard incubation period, FIGS. 3 and 4
  effect on cap formation / effectiveness as membrane mobility agent: less than the ester A1 C in effect

## CCCCCCCCCCCCCCCCCC(=O)OCCOCCOC [A2 S, 2-(2-methoxy)-ethoxyethyl octadecanoate, reference compound]
[1]; classification of compounds of Table I
  membrane mobility activity (active/inactive): inactive

## CCCCCCCCC1CC1CCCCCCCC(=O)OCCOCCOCCOC (stereo not shown) [A3 C, 2-[2-(2-methoxy)-ethoxy]ethoxyethyl 8-(2-n-octycyclopropyl)-octanoate]
[2]
  cytotoxicity on lymphocytes relative to concentration affecting mobility: toxicity with amounts close to that at which an effect on mobility was seen

## CN1CCN(C(=O)N=NC(=O)N2CCN(C)CC2)CC1 [DIP, diazene dicarboxylic acid bis(N'-methylpiperazide)]
[7]
  oxidation of intracellular glutathione: oxidizes the glutathione within cells to glutathione disulfide
